Experiment [1] can be described thus: Inhibition of PI3Kbeta in human platelet-rich plasma assessed as suppression of ADP-induced platelet aggregation preincubated for 5 mins followed by ADP stimulation after 10 mins by light transmission aggregometric analysis.
The target in experiment [2] is Phosphatidylinositol 4,5-bisphosphate 3-kinase catalytic subunit beta isoform (Homo sapiens, UniProt P42338). As to the kind of experiment: Inhibition of PI3Kbeta in human washed platelets assessed as suppression of ADP-induced platelet aggregation preincubated for 5 mins followed by ADP stimulation after 10 mins by light transmission aggregometric analysis.
Experiment [3] can be described thus: Inhibition of PI3Kbeta in human washed platelets assessed as suppression of ADP-induced platelet aggregation preincubated for 5 mins followed by ADP stimulation after 10 mins by light transmission aggregometric analysis.

Sequence of Phosphatidylinositol 4,5-bisphosphate 3-kinase catalytic subunit beta isoform (P42338 whole entry, canonical isoform): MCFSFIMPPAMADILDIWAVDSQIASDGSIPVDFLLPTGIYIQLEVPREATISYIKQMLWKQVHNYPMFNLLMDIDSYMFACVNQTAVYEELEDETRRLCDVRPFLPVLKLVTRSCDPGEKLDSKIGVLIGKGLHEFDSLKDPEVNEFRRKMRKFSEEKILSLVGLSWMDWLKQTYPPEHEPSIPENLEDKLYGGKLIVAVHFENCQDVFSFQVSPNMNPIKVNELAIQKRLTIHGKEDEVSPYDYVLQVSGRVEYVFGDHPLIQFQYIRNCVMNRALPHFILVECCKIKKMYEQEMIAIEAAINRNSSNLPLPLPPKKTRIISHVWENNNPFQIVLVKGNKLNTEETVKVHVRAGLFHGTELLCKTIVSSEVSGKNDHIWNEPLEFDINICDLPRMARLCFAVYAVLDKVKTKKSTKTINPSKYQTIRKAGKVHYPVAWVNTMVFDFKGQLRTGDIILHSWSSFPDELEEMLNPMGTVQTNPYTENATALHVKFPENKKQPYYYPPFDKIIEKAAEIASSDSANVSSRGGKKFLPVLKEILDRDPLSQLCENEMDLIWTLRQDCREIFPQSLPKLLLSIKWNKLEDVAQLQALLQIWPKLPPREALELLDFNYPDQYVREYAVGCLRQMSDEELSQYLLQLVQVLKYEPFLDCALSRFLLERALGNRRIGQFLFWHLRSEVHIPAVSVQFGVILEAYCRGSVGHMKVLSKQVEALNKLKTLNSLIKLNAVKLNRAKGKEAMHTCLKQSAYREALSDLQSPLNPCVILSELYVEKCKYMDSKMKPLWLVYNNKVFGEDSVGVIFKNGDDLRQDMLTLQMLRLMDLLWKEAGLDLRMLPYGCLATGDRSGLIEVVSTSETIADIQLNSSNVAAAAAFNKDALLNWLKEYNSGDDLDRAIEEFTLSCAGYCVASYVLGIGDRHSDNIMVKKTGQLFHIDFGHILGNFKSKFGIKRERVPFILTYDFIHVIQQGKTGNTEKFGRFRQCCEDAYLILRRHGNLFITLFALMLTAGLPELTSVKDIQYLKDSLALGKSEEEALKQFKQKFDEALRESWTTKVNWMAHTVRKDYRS

As for `N[C@@H](Cc1ccccc1)C(=O)N1CCN(c2nc(N3CCOCC3)nc(-n3c(C(F)F)nc4ccccc43)n2)CC1`, the results for the half-maximal inhibitory concentration (IC50) in experiment [1] and in experiment [2] were 2.8 µM and 0.03 µM, respectively.
As for `O=C([C@@H]1CCCN1)N1CCN(c2nc(N3CCOCC3)nc(-n3c(C(F)F)nc4ccccc43)n2)CC1`, in experiment [3], the IC50 was 0.03 µM.
For `O=C([C@H]1CCCN1)N1CCN(c2nc(N3CCOCC3)nc(-n3c(C(F)F)nc4ccccc43)n2)CC1`, in experiment [3], the IC50 came to 0.03 µM.

Source of the values: BindingDB's records for doi:10.1016/j.ejmech.2016.06.010 (Monash University, 2016).
